Source: patent US20240109969A1, “Dosing Regimen for Therapies Comprising Bispecific Anti-EGFR/C-Met Antibodies” (Janssen Biotech, Inc., priority 2022, published 2024)
Entries after “also recorded” stand apart in the source; their conditions may differ.

Key:
P-glycoprotein (P-gp) = P-glycoprotein (P-gp) (Homo sapiens, UniProt P08183); settings: cited from earlier work
[1] = target: T1, multidrug resistance protein 4 (MRP4) (Homo sapiens, UniProt O15439); settings: cited from earlier work
T1 sequence (O15439 1-1325): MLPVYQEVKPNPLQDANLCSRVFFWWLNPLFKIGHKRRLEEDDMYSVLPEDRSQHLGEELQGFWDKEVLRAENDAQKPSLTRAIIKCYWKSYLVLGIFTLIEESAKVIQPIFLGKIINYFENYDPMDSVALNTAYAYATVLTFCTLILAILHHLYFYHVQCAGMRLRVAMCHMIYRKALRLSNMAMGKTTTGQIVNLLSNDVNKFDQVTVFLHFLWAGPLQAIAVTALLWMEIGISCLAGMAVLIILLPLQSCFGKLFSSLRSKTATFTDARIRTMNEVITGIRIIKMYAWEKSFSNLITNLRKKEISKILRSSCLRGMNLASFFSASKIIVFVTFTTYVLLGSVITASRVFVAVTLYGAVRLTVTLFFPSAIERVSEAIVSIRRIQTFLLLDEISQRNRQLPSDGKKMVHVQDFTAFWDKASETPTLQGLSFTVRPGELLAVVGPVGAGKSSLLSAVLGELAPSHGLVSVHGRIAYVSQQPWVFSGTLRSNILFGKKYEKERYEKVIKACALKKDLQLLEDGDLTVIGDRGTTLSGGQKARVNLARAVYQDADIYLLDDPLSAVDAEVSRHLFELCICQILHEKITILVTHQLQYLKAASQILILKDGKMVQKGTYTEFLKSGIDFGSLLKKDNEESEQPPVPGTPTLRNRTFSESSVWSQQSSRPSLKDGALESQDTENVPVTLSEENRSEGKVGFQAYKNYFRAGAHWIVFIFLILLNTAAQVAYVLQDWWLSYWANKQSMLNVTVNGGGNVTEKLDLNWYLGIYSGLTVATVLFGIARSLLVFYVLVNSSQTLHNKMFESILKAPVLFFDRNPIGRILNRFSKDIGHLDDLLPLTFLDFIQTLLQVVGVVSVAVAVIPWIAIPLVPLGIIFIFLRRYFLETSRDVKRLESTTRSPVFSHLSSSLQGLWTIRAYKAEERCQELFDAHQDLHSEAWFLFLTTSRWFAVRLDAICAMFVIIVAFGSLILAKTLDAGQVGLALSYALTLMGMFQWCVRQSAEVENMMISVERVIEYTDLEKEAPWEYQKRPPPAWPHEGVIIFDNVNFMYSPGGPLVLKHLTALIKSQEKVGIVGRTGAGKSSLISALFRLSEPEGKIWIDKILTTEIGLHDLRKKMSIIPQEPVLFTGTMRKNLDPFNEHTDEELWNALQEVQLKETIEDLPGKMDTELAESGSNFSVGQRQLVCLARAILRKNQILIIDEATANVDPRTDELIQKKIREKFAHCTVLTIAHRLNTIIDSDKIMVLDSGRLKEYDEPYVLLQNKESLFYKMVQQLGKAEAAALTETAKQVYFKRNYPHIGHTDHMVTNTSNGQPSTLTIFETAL

[2] = target: T2, breast cancer resistance protein (BCRP) (Homo sapiens, UniProt Q9UNQ0); settings: cited from earlier work
T2 sequence (Q9UNQ0 1-655): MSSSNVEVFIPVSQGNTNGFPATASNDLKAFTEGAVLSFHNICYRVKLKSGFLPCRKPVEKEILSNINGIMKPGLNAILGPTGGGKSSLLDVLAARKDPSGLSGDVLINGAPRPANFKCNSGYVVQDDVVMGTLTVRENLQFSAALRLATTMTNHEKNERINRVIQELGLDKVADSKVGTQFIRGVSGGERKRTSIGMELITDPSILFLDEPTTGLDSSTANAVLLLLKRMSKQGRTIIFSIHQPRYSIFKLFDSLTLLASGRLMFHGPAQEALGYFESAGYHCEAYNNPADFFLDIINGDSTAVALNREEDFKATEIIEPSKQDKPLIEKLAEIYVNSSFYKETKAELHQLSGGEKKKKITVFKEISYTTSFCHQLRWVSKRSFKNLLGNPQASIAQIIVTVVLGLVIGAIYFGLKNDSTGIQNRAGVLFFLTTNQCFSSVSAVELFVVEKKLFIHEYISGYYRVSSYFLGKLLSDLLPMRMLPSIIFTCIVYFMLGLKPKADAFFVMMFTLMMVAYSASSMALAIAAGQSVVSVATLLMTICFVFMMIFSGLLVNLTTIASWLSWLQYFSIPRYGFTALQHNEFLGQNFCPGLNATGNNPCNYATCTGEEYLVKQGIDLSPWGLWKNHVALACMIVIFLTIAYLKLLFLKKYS

[3] = target: T3, Organic Cation Transporter 1 (OCT1) (Homo sapiens, UniProt O15245); settings: cited from earlier work
T3 sequence (O15245 1-554): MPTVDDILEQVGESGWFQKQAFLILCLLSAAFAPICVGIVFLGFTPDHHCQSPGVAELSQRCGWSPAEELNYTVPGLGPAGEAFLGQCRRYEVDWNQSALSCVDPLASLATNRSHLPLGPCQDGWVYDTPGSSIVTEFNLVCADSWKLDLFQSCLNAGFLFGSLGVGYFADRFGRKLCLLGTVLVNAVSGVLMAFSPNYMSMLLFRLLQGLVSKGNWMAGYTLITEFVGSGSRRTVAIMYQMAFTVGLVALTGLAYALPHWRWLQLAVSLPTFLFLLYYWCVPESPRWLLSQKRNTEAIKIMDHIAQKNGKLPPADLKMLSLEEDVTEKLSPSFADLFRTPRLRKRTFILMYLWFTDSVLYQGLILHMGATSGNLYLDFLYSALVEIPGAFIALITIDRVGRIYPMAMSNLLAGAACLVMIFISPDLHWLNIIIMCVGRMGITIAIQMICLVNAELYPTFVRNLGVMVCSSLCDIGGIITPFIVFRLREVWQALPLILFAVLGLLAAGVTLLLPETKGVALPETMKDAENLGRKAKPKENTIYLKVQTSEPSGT

Chain of P-glycoprotein (P-gp) (P08183 whole entry): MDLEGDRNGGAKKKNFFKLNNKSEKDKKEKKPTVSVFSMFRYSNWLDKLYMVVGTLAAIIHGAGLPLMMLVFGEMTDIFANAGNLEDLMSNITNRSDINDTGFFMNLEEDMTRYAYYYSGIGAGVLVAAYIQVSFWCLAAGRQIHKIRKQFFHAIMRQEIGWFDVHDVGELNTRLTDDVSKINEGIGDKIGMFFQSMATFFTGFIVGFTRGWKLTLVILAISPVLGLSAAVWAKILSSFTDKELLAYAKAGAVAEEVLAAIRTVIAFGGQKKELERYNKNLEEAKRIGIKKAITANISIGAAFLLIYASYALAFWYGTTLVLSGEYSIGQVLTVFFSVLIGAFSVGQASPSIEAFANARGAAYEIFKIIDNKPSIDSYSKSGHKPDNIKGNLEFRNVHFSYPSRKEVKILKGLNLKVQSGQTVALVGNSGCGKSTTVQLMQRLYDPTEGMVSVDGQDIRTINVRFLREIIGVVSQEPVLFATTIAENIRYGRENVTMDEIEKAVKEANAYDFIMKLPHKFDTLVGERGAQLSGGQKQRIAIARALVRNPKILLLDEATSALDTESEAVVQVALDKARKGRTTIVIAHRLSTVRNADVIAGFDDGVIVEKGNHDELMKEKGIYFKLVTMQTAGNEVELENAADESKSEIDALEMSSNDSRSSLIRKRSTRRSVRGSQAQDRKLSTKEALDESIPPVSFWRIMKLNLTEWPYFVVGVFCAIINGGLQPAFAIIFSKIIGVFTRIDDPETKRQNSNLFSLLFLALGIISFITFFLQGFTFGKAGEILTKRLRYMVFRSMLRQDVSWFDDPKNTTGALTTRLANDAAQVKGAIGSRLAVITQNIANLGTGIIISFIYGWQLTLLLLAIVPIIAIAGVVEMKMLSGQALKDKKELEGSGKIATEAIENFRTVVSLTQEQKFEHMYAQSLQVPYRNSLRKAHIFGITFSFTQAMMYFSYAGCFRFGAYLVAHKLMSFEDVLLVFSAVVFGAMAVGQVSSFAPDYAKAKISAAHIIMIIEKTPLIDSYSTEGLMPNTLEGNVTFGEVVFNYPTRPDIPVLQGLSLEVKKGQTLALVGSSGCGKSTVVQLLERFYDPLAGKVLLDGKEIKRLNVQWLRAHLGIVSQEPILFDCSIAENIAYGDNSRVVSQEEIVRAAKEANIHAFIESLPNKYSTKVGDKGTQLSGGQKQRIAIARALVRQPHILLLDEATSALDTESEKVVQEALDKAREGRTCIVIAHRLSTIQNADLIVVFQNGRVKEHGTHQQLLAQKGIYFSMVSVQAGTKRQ

Molecule	impact of chemotherapy on amivantamab exposure (preliminary cycle 1 PK data (n=9), FIG. 3A-C)	amivantamab trough concentration / exposure, Q3W (21-day cycle) versus monotherapy Q2W (28-day cycle, 1050/1400 mg) (preliminary, FIG. 4A-B)	inhibition of P-gp (P-glycoprotein (P-gp))	inhibition of MRP4 [1]	inhibition of BCRP [2]	inhibition of OCT1 [3]
amivantamab	no impact; also recorded: not impacted	Similar	–	–	–	–
C=CC(=O)Nc1cc(Nc2nccc(-n3cc(CN(C)C)c(-c4ccccc4)n3)n2)c(OC)cc1N1CCOCC1 [Lazertinib, N-(5-(4-(4-((dimethylamino)methyl)-3-phenyl-1H-pyrazol-1-yl)pyrimidin-2-ylamino)-4-methoxy-2-morpholinophenyl)acrylamide]	–	–	inhibitor	inhibitor	inhibitor	inhibitor
